Experimental data taken from patent US20170064965A1, “ANTIMICROBIAL PEPTIDES DERIVED FROM PHAGE OF ACINETOBACTER BAUMANNII AND USE THEREOF” (Hualien Tzu Chi Hospital, Buddhist Tzu Chi Medical …, priority 2015, published 2017).
Values after ≈ are worked out from the molar mass of the structure shown. Read-outs that look alike come from different tables or passages of the source. Where a SMILES comes first, the peptide text is derived from it.

Key:
Assay type in all cases: cell-based
Acinetobacter baumannii [1] = test: Scanning electron microscope observation of bacterial destruction; details: 80 μM peptide, 1×10^9 CFU bacteria, 37° C., 1 hour
Acinetobacter baumannii [2] = test: MBC determination
Protocol: (§1) Determination of Minimum Bactericidal Concentration (MBC)
(§2) In order to find out the minimum bactericidal concentration of the antimicrobial peptides of the present disclosure against bacteria, the surface of a suitable culture medium was covered by 100 μL of antimicrobial peptides at the minimal inhibitory concentration determined above with glass beads, then the medium was cultured at 37° C. for 24 hours, thereafter, and observation was conducted for 3 days. When no colony grew, it is the indication that the bacteria have been killed.

[3] = test system: Acinetobacter baumannii ATCC 19606; test: Broth microdilution MIC; details: ATCC 19606, standard strain
Protocol: (§3) Determination of Minimal Inhibitory Concentration (MIC)
(§4) In order to test the inhibitory effect of the antimicrobial peptides of the present disclosure, broth microdilution test was conducted to determine the minimal inhibition concentration (MIC) of the antimicrobial peptides against bacteria. The MIC represents the minimal concentration of the peptide which has the ability to inhibit bacteria growth completely.
(§5) Acinetobacter baumannii strains used in the examples in the conduction of the minimal inhibitory concentration and the minimum bactericidal concentration tests are shown in Table 2.

Acinetobacter baumannii [4] = test: Broth microdilution MIC, summary in text
Protocol: as §3, §4

[5] = test system: Acinetobacter baumannii ATCC 19606; test: Minimum bactericidal concentration (MBC) determination; details: ATCC 19606, standard strain
Protocol: as §1, §2, §5

[6] = test system: Acinetobacter baumannii 39181
Protocol: as §1, §2, §5

[7] = test system: Acinetobacter baumannii 44820
Protocol: as §1, §2, §5

[8] = test system: Acinetobacter baumannii ATCC 17978CR; details: colistin-resistant
Protocol: as §1, §2, §5

[9] = test system: Acinetobacter baumannii BCRC 80276
Protocol: as §1, §2, §5

[10] = test system: Acinetobacter baumannii 39400
Protocol: as §1, §2, §5

[11] = test system: Acinetobacter baumannii ATCC 19606CR; details: colistin-resistant
Protocol: as §1, §2, §5

[12] = test system: Acinetobacter baumannii 39181; remark: listed apart in the source
Protocol: as §3, §4, §5

[13] = test system: Acinetobacter baumannii 44820; remark: listed apart in the source
Protocol: as §3, §4, §5

[14] = test system: Acinetobacter baumannii ATCC 17978CR; details: colistin-resistant; remark: listed apart in the source
Protocol: as §3, §4, §5

[15] = test system: Acinetobacter baumannii BCRC 80276; remark: listed apart in the source
Protocol: as §3, §4, §5

[16] = test system: Acinetobacter baumannii 39400; remark: listed apart in the source
Protocol: as §3, §4, §5

[17] = test system: Acinetobacter baumannii ATCC 19606CR; details: colistin-resistant; remark: listed apart in the source
Protocol: as §3, §4, §5

[18] = test system: Acinetobacter baumannii ATCC 17978; test: Broth microdilution MIC; details: ATCC 17978, standard strain
Protocol: as §3, §4, §5

[19] = test system: Acinetobacter baumannii ATCC 17978; test: Minimum bactericidal concentration (MBC) determination; details: ATCC 17978, standard strain
Protocol: as §1, §2, §5

[20] = Acinetobacter baumannii, summary of Table 3
[21] = multidrug-resistant Acinetobacter baumannii
[22] = BCRC 80276, multidrug-resistant

Row | SMILES | appearance of bacteria under scanning electron microscope (Acinetobacter baumannii [1]) | minimum bactericidal concentration (Acinetobacter baumannii [2]; [20]) | Minimal Inhibitory Concentration (MIC) [3] | minimal inhibitory concentration (Acinetobacter baumannii [4]; [20]) | Minimum Bactericidal Concentration (MBC) [5] | Minimum Bactericidal Concentration (MBC) ([6]; 39181, multidrug-resistant) | Minimum Bactericidal Concentration (MBC) ([7]; 44820, multidrug-resistant) | Minimum Bactericidal Concentration (MBC) [8] | Minimum Bactericidal Concentration (MBC) [9, 22] | Minimum Bactericidal Concentration (MBC) ([10]; 39400, multidrug-resistant) | Minimum Bactericidal Concentration (MBC) [11] | Minimal Inhibitory Concentration (MIC) ([12]; 39181, multidrug-resistant) | Minimal Inhibitory Concentration (MIC) ([13]; 44820, multidrug-resistant) | Minimal Inhibitory Concentration (MIC) [14] | Minimal Inhibitory Concentration (MIC) [15, 22] | Minimal Inhibitory Concentration (MIC) ([16]; 39400, multidrug-resistant) | Minimal Inhibitory Concentration (MIC) [17] | Minimal Inhibitory Concentration (MIC) [18] | Minimum Bactericidal Concentration (MBC) [19] | also measured
1 | CC[C@H](C)[C@H](NC(=O)[C@H](C)NC(=O)[C@H](CCCCN)NC(=O)[C@H](CCC(N)=O)NC(=O)[C@@H](NC(=O)[C@H](C)NC(=O)[C@@H](NC(=O)[C@H](CC(C)C)NC(=O)[C@H](CCCCN)NC(=O)[C@H](CCC(=O)O)NC(=O)[C@H](CC(C)C)NC(=O)[C@H](C)NC(=O)[C@H](CCCCN)NC(=O)[C@H](CCC(=O)O)NC(=O)[C@@H]1CCCN1C(=O)[C@@H](N)CC(N)=O)[C@@H](C)CC)[C@@H](C)CC)C(=O)N[C@@H](CCCCN)C(=O)NCC(=O)N[C@@H](CCSC)C(=O)N[C@@H](CC(C)C)C(=O)N[C@@H](CC(N)=O)C(=O)NCC(=O)N[C@@H](Cc1c[nH]c2ccccc12)C(=O)N[C@@H](Cc1ccccc1)C(=O)N[C@H](C(=O)NCC(=O)N[C@H](C(=O)NCC(=O)N[C@@H](Cc1ccccc1)C(=O)N[C@@H](CCCNC(=N)N)C(=O)N[C@@H](CCCNC(=N)N)C(=O)N[C@@H](CCCCN)C(=O)N[C@@H](CCCNC(=N)N)C(=O)O)C(C)C)[C@@H](C)O [LysAB2 113-145 G4] (H-NPEKALEKLIAIQKAIKGMLNGWFTGVGFRRKR-OH; N-terminus and C-terminus assumed) | incomplete surface and holes thereon | 4 µM (≈ 15.1 µg/mL) | 4 µM | 4 µM (≈ 15.1 µg/mL) | 4 µM | 4 µM | 4 µM | 8 µM | 4 µM | 4 µM | 8 µM | 4 µM | 4 µM | 8 µM | 4 µM | 4 µM | 8 µM |  |  | minimum bactericidal concentration (Acinetobacter baumannii [2]; [21]): 4 µM (≈ 15.1 µg/mL); minimal inhibitory concentration (Acinetobacter baumannii [4]; [21]): 4 µM (≈ 15.1 µg/mL)
2 | CC[C@H](C)[C@H](NC(=O)[C@H](C)NC(=O)[C@@H](NC(=O)[C@H](CCC(N)=O)NC(=O)[C@@H](NC(=O)[C@H](C)NC(=O)[C@@H](NC(=O)[C@H](CC(C)C)NC(=O)[C@@H]1CCCN1C(=O)[C@H](CCC(=O)O)NC(=O)[C@H](CC(C)C)NC(=O)[C@H](C)NC(=O)[C@H](CCCCN)NC(=O)[C@H](CCC(=O)O)NC(=O)[C@@H]1CCCN1C(=O)[C@@H](N)CC(N)=O)[C@@H](C)CC)[C@@H](C)CC)[C@@H](C)CC)C(=O)N[C@@H](CCCCN)C(=O)NCC(=O)N[C@@H](CCSC)C(=O)N[C@@H](CC(C)C)C(=O)N[C@@H](CC(N)=O)C(=O)NCC(=O)N[C@@H](Cc1c[nH]c2ccccc12)C(=O)N[C@@H](Cc1ccccc1)C(=O)N[C@H](C(=O)NCC(=O)N[C@H](C(=O)NCC(=O)N[C@@H](Cc1ccccc1)C(=O)N[C@@H](CCCNC(=N)N)C(=O)N[C@@H](CCCNC(=N)N)C(=O)N[C@@H](CCCCN)C(=O)N[C@@H](CCCNC(=N)N)C(=O)O)C(C)C)[C@@H](C)O [LysAB2 113-145] (H-NPEKALEPLIAIQIAIKGMLNGWFTGVGFRRKR-OH; N-terminus and C-terminus assumed) | surface of the bacterial body is incomplete and has holes thereon, even is broken | 64 µM (≈ 238 µg/mL) | 64 µM | 64 µM (≈ 238 µg/mL) | 64 µM | 64 µM | 64 µM | 64 µM | 64 µM | 64 µM | 64 µM | 64 µM | 64 µM | 64 µM | 64 µM | 64 µM | 64 µM |  |  | 
3 | CC[C@H](C)[C@H](NC(=O)[C@H](C)NC(=O)[C@H](CCCCN)NC(=O)[C@H](CCC(N)=O)NC(=O)[C@@H](NC(=O)[C@H](C)NC(=O)[C@@H](NC(=O)[C@H](CC(C)C)NC(=O)[C@H](CCCCN)NC(=O)[C@H](CCC(=O)O)NC(=O)[C@H](CC(C)C)NC(=O)[C@H](C)NC(=O)[C@H](CCCCN)NC(=O)[C@@H](N)CCC(=O)O)[C@@H](C)CC)[C@@H](C)CC)C(=O)N[C@@H](CCCCN)C(=O)NCC(=O)N[C@@H](CCSC)C(=O)N[C@@H](CC(C)C)C(=O)N[C@@H](CC(N)=O)C(=O)NCC(=O)N[C@@H](Cc1c[nH]c2ccccc12)C(=O)N[C@@H](Cc1ccccc1)C(=O)N[C@H](C(=O)NCC(=O)N[C@H](C(=O)N[C@@H](Cc1ccccc1)C(=O)N[C@@H](CCCNC(=N)N)C(=O)N[C@@H](CCCNC(=N)N)C(=O)N[C@@H](CCCCN)C(=O)N[C@@H](CCCNC(=N)N)C(=O)O)C(C)C)[C@@H](C)O [LysAB2 113-145 G1] (H-EKALEKLIAIQKAIKGMLNGWFTGVFRRKR-OH; N-terminus and C-terminus assumed) |  |  | 8 µM |  | 8 µM | 8 µM | 8 µM | 16 µM | 8 µM | 8 µM | 16 µM | 8 µM | 8 µM | 16 µM | 8 µM | 8 µM | 16 µM | 8 µM | 8 µM | 
4 | CC[C@H](C)[C@H](NC(=O)[C@H](C)NC(=O)[C@H](CCCCN)NC(=O)[C@H](CCC(N)=O)NC(=O)[C@@H](NC(=O)[C@H](C)NC(=O)[C@@H](NC(=O)[C@H](CC(C)C)NC(=O)[C@H](CCCCN)NC(=O)[C@H](CCC(=O)O)NC(=O)[C@H](CC(C)C)NC(=O)[C@H](C)NC(=O)[C@H](CCCCN)NC(=O)[C@@H](N)CCC(=O)O)[C@@H](C)CC)[C@@H](C)CC)C(=O)N[C@@H](CCCCN)C(=O)NCC(=O)N[C@@H](CCSC)C(=O)N[C@@H](CC(C)C)C(=O)N[C@@H](C)C(=O)NCC(=O)N[C@@H](Cc1c[nH]c2ccccc12)C(=O)N[C@@H](Cc1ccccc1)C(=O)N[C@H](C(=O)NCC(=O)N[C@H](C(=O)N[C@@H](C)C(=O)N[C@@H](CCCNC(=N)N)C(=O)N[C@@H](CCCNC(=N)N)C(=O)N[C@@H](CCCCN)C(=O)N[C@@H](CCCNC(=N)N)C(=O)O)C(C)C)[C@@H](C)O [LysAB2 113-145 G3] (H-EKALEKLIAIQKAIKGMLAGWFTGVARRKR-OH) |  |  | 16 µM |  | 16 µM |  |  | 32 µM |  |  | 32 µM |  |  | 16 µM |  |  | 16 µM | 16 µM | 16 µM | Minimum Bactericidal Concentration (MBC) [6]; 39181: 16 µM; Minimum Bactericidal Concentration (MBC) [7]; 44820: 16 µM; Minimum Bactericidal Concentration (MBC) ([9]; BCRC 80276): 16 µM; Minimum Bactericidal Concentration (MBC) [10]; 39400: 16 µM; Minimal Inhibitory Concentration (MIC) [12]; 39181: 16 µM; Minimal Inhibitory Concentration (MIC) [13]; 44820: 16 µM; Minimal Inhibitory Concentration (MIC) ([15]; BCRC 80276): 16 µM; Minimal Inhibitory Concentration (MIC) [16]; 39400: 16 µM
